Here are results for three compounds from patent publication US4005103A, “Pyrrolidine derivatives” (priority 1973, dated 1977).

Where two headings read alike, the source gives them in different places.

The nature of data set [1]: Toxicity, mice in groups (death rate). The conditions noted are these: mouse, in vivo, 4 hours after treatment, read-out: percentage death rate. Here is the method:
(§1) Batches of 10 mice are placed in boxes covered with grids (20 × 10 × 10 cm), either isolated individually, or in groups of 10. The test compound is administered orally to them. The death rate is noted 4 hours after the treatment.
(§2) Tables IV and V below give the percentage death rate for the products of Examples XXIV and XXVII compared with d-amphetamine sulphate.

The nature of data set [2]: Cardiovascular activity in anaesthetised dogs. The format is in vivo. The conditions noted are these: for pulmonary and systemic hypertension: amphetamine injected intravenously. The source says:
5. CARDIOVASCULAR ACTIVITY

Data set [3] is described as follows: Toxicity, isolated mice (death rate). To be noted: mouse, in vivo, 4 hours after treatment, read-out: percentage death rate. Here is the method:
as §1, §2

A short description of data set [4]: Clinical activity (food intake in man). The format is in vivo. To be noted: daily dose of 50 mg. On the procedure:
The compounds are preferably presented in a form suitable for oral administration, for example in the form of gelatin-coated pills containing 25 mg of the active ingredient.

A short description of data set [5]: Anorexigenic activity in rats. The format is in vivo, Sprague Dawley male rats. The conditions noted are these: for ED50: Rattus norvegicus, oral, Litchfield and Wilcoxon method, read-out: ED50 (50% inhibiting dose in relation to the consumption of food). On the procedure:
3. ANOREXIGENIC ACTIVITY IN RATS
Two batches of three Sprague Dawley male rats (130 - 180 g) are conditioned to take their daily food over the course of 7 hours. Water is given as desired. The test compound is administered orally 30 minutes before the food is presented. The amount ingested is measured 1 hour and 2 hours later. The 50% inhibiting dose in relation to the consumption of food (ED50) and the confidence range are calculated according to the Litchfield and Wilcoxon method.
Table III gives the percentage inhibition in relation to the consumption of food as a function of the doses administered.

The nature of data set [6]: Potentiation of amphetamine: stereotypies in rats after d-amphetamine sulphate. To be noted: 30 min before 5 mg/kg d-amphetamine sulphate i.p., over 3 hours, maximum 24. It is filed as in vivo. Here is the method:
1. POTENTIATION OF AMPHETAMINE
The test compound is administered intraperitoneally to rats 30 minutes before the intraperitoneal injection of 5 mg/kg of d-amphetamine sulphate. The intensity of the stereotypies over a period of 3 hours is assessed by attributing a number from 0 to 4. Table I indicates the sum of the assessments as a function of the doses administered. The maximum assessment is 24.

A short description of data set [7]: Anorexigenic activity in dogs. The format is in vivo, Beagle dogs. The conditions noted are these: Canis lupus familiaris, po, read-out: percentage inhibition of consuming food. On the procedure: 2. ANOREXIGENIC ACTIVITY IN DOGS
Beagle dogs are conditioned to take their food over the course of 5 minutes once per day. The test compound is administered orally in the form of a single dose of 10 mg/kg one hour before the food is presented. The amount of food ingested is measured at regular intervals.
Table II gives the percentage inhibition of consuming food as a function of the time after treatment.

As to `CC(N)Cc1ccccc1` (stereo not drawn) [Amphetamine, d-amphetamine sulphate, reference compound], the mortality at 4 h in data set [1] (4 mg/kg oral) amounted to 0%; in data set [1] (8 mg/kg oral), 20%; in data set [1] (16 mg/kg oral), 100%; in data set [1] (32 mg/kg oral) it was 100%; in data set [3] (16 mg/kg oral), 0%; in data set [3] (32 mg/kg oral), 0%. The results for the mortality at 4 h in data set [3] (64 mg/kg oral) and in data set [3] (128 mg/kg oral) were 10% and 100%, respectively. In addition, in data set [2], the “pulmonary and systemic hypertension” value is “causes pulmonary and systemic hypertension”.

For orientation: ED50 means the dose at which the effect has come halfway, by size or by number of responders. As to `CC1NC(C2CC2)CC1c1ccc(Cl)cc1.Cl` (stereo not drawn) [XXIV, 2-cyclopropyl-4-(p-chlorophenyl)-5-methylpyrrolidine hydrochloride], the mortality at 4 h in data set [1] (16 mg/kg oral), in data set [1] (32 mg/kg oral), in data set [1] (64 mg/kg oral), in data set [1] (128 mg/kg oral), in data set [3] (16 mg/kg oral) and in data set [3] (32 mg/kg oral) was 0% throughout. The figures for the mortality at 4 h in data set [3] (64 mg/kg oral) and in data set [3] (128 mg/kg oral) were 0% and 27%, respectively. Further, in data set [4], the “amount of food ingested daily” value is “a decrease in the amount of food ingested daily”. In data set [2], the systemic hypotension result is “cause systemic hypotension”. Also, the “pulmonary and systemic hypertension” value in data set [2] was “do not cause these phenomena”. For the same compound, the “percentage inhibition in relation to the consumption of food” value (“percentage inhibition in relation” for short) is 6% in data set [5] (1 mg/kg oral, 1 hr); 5% in data set [5] (1 mg/kg oral, 2 hrs); 44% in data set [5] (2 mg/kg oral, 1 hr); 53% in data set [5] (2 mg/kg oral, 2 hrs); 47% in data set [5] (4 mg/kg oral, 1 hr); 34% in data set [5] (4 mg/kg oral, 2 hrs). For the same compound, the “percentage inhibition in relation” value in data set [5] (8 mg/kg oral, 1 hr) was determined as 77%; in data set [5] (8 mg/kg oral, 2 hrs) it was 71%; in data set [5] (16 mg/kg oral, 1 hr), 77%; in data set [5] (16 mg/kg oral, 2 hrs) it was 80%. Besides, the ED50 was 3.5 mg/kg in data set [5] (1 hr) and 5.6 mg/kg in data set [5] (2 hrs). In addition, the entries for the “sum of the assessments of intensity of stereotypies” value in data set [6] (1 mg/kg intraperitoneal), in data set [6] (4 mg/kg intraperitoneal) and in data set [6] (16 mg/kg intraperitoneal) were 7, 22 and 24, respectively. For the same compound, the inhibition in vivo at 10 mg/kg in data set [7] (1 h) was 100%; in data set [7] (2 h) it was 100%; in data set [7] (4 h), 100%; in data set [7] (24 h), 80%; in data set [7] (48 h), 50%.

For the compound `CC1NC(C2CC2)CC1c1ccc(Cl)c(Cl)c1.Cl` (stereo not drawn) [XXVII, 2-cyclopropyl-4-(3',4'-dichlorophenyl)-5-methylpyrrolidine hydrochloride], the mortality at 4 h in data set [1] (16 mg/kg oral) was determined as 0%; in data set [1] (32 mg/kg oral), 0%; in data set [1] (64 mg/kg oral), 0%; in data set [1] (128 mg/kg oral), 70%; in data set [3] (16 mg/kg oral), 0%; in data set [3] (32 mg/kg oral), 20%. For the same compound, the mortality at 4 h in data set [3] (64 mg/kg oral) worked out at 70%. Moreover, the “amount of food ingested daily” value in data set [4] was “a decrease in the amount of food ingested daily”. The systemic hypotension entry in data set [2] is listed as “cause systemic hypotension”. The “pulmonary and systemic hypertension” value in data set [2] is recorded as “do not cause these phenomena”. In addition, the “percentage inhibition in relation” value was found to be 25% in data set [5] (0.5 mg/kg oral, 1 hr); 30% in data set [5] (0.5 mg/kg oral, 2 hrs); 39% in data set [5] (1 mg/kg oral, 1 hr); 36% in data set [5] (1 mg/kg oral, 2 hrs); 28% in data set [5] (2 mg/kg oral, 1 hr); 37% in data set [5] (2 mg/kg oral, 2 hrs). Also, the “percentage inhibition in relation” value in data set [5] (4 mg/kg oral, 1 hr) is recorded as 58%; in data set [5] (4 mg/kg oral, 2 hrs) it was 55%; in data set [5] (8 mg/kg oral, 1 hr), 84%; in data set [5] (8 mg/kg oral, 2 hrs) it was 83%; in data set [5] (16 mg/kg oral, 1 hr), 100%; in data set [5] (16 mg/kg oral, 2 hrs) it was 100%. For the same compound, the figures for the ED50 in data set [5] (1 hr) and in data set [5] (2 hrs) were 2.3 mg/kg and 2.2 mg/kg, respectively. Also, the “sum of the assessments of intensity of stereotypies” value came out at 21 in data set [6] (1 mg/kg intraperitoneal), 23 in data set [6] (4 mg/kg intraperitoneal) and 24 in data set [6] (16 mg/kg intraperitoneal). Also, the inhibition in vivo at 10 mg/kg in data set [7] (1 h), in data set [7] (2 h), in data set [7] (4 h), in data set [7] (24 h) and in data set [7] (48 h) was 100% in each case.
